Biological target: T1, EHMT1 (Homo sapiens, UniProt Q9H9B1)
T1 sequence (Q9H9B1 1-1298): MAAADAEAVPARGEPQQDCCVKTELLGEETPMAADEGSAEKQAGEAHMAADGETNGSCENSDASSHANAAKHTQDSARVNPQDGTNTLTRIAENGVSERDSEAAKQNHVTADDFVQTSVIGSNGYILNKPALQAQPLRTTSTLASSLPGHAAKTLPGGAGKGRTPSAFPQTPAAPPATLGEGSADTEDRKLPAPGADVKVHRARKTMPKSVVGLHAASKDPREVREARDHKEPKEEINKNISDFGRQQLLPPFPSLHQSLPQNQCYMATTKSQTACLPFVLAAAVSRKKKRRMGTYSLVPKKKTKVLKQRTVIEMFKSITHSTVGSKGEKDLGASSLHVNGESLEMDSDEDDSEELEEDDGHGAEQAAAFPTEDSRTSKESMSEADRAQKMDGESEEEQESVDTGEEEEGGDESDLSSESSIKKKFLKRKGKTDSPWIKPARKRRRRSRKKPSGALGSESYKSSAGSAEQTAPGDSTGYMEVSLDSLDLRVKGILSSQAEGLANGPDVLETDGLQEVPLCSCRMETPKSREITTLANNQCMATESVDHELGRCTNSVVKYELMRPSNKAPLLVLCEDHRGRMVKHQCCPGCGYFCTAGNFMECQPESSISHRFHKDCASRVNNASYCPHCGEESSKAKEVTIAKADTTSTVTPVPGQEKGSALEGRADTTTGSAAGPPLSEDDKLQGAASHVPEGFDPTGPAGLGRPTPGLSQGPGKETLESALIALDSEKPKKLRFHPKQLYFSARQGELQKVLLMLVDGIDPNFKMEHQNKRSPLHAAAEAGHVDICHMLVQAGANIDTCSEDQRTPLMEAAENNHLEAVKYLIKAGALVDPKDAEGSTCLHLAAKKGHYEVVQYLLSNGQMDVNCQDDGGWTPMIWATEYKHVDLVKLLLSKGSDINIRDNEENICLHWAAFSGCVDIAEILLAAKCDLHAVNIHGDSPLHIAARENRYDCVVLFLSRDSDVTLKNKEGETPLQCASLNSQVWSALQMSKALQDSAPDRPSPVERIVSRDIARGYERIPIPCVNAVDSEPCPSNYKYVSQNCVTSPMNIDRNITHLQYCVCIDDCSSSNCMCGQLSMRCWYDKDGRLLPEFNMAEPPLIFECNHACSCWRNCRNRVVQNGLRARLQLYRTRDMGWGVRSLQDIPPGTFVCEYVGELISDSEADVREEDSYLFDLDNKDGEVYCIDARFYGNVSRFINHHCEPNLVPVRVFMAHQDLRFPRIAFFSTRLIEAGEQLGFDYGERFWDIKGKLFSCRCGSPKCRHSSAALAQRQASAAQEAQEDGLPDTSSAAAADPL
Assay: EHMT1 enzyme assay on peptide substrate (EHMT1 PEP)
Type: biochemical
Details: Table VI; read-out: EHMT1 PEP IC50

Structure (SMILES) | IC50 [µM]
COc1cc(NC2CCNCC2)ncc1OCC1CCN(C)C1 (centres unmarked) [Compound 604] | 0.1 to 1
COc1nc(NC2CCNCC2)ncc1OCC1CCN(C)C1 (centres unmarked) [Compound 605] | > 10
CCN1CC(COc2cc(Nc3nc(C)cc4[nH]ncc34)ncc2OC)C1 [Compound 607] | < 0.1
CNc1cc(C)nc(Nc2cc(OCCCN3CCCC3)n3cnnc3c2)n1 [Compound 628] | > 10
COc1cc(NC2CCNCC2)ncc1OCC1CCNC1 (centres unmarked) [Compound 629] | < 0.1
CCc1nc(NC2CCNCC2)ncc1OCC1CCN(C)C1 (centres unmarked) [Compound 630] | > 10
CCc1nc(NC2CCNCC2)ncc1OCC1CN(C(C)C)C1 [Compound 631] | > 10
CN1CCC(Nc2ncc(OCC3CCN(C)C3)cn2)CC1 (centres unmarked) [Compound 632] | > 10
CN1CCC(COc2cnc(N(C)C3CCNCC3)nc2)C1 (centres unmarked) [Compound 633] | > 10
COc1cc(N(C)C2CCNCC2)ncc1OCC1CCN(C)C1 (centres unmarked) [Compound 634] | 0.1 to 1
COc1cc(N(C)C2CCNCC2)ncc1OCC1CCN(C)C1 (centres unmarked) [Compound 635] | 1 to 10
CC(C)N1CC(COc2cnc(NC3CCNCC3)nc2)C1 [Compound 636] | > 10
CC(C)N1CC[C@@H](COc2cnc(N(C)C3CCNCC3)nc2)C1 [Compound 637] | > 10
COc1cnc(Nc2cccn3cncc23)cc1OCCCN1CCCC1 [Compound 638] | > 10
COc1cnc(NC(=O)/C=C/CN(C)C)cc1OCCCN1CCCC1 [Compound 640] | > 10
CNc1cc(C)nc(Nc2cnc(OC)c(OC[C@@H]3CCNC3)c2)n1 [Compound 641] | < 0.1
COc1cc(Nc2ccc3[nH]ncc3c2)ncc1OCCCN1CCCC1 [Compound 643] | > 10

Structure (SMILES) | IC50 [µM]
CNc1cc(C)nc(Nc2ccc(OC)c(CNCCN3CCCC3)c2)n1 [Compound 644, 2-N-[4-methoxy-3-([[2-(pyrrolidin-1-yl)ethyl]amino]methyl)phenyl]-4-N,6-dimethylpyrimidine-2,4-diamine] | < 0.1
CNc1cc(C)nc(Nc2ccc(OC)c(CN(C)CCN3CCCC3)c2)n1 [Compound 645] | 1 to 10
CCN1CCC(NCc2cc(Nc3nc(C)cc(NC)n3)ccc2OC)C1 (centres unmarked) [Compound 646] | 1 to 10
CCN1CC(NCc2cc(Nc3nc(C)cc(NC)n3)ccc2OC)C1 [Compound 647] | 1 to 10
COc1cc(Nc2ccc3[nH]ncc3n2)ncc1OCCCN1CCCC1 [Compound 648] | 1 to 10
CCN1CC([C@H](C)Oc2cc(Nc3nc(C)cc(NC)n3)ccc2OC)C1 [Compound 649] | 0.1 to 1
CCN1CC(N(C)Cc2cc(Nc3nc(C)cc(NC)n3)ccc2OC)C1 [Compound 650] | > 10
CCN1CCC(N(C)Cc2cc(Nc3nc(C)cc(NC)n3)ccc2OC)C1 (centres unmarked) [Compound 651] | 1 to 10
COc1cc2c(C3CCN(C)CC3)c(F)c(C)nc2cc1OCCCN1CCCC1 [Compound 652] | < 0.1
COc1cnc(Nc2cccc3nccn23)nc1OCCCN1CCCC1 [Compound 654] | > 10
COc1cnc(Nc2cccc3[nH]ncc23)nc1OCCCN1CCCC1 [Compound 655] | > 10
COc1cnc(Nc2cccc3nncn23)nc1OCCCN1CCCC1 [Compound 656] | > 10
COc1cc2c(C3CCN(C)CC3)nc(C)nc2cc1OCCCN1CCCC1 [Compound 658] | 0.1 to 1
COc1cc2c(C3CCN(C(C)C)CC3)nc(C)nc2cc1OCCCN1CCCC1 [Compound 659] | 0.1 to 1
CCN1CC(COc2cc3nc(C)cc(C4CCN(C)CC4)c3cc2OC)C1 [Compound 660] | < 0.1
CCN1CC(COc2cc3nc(C)cc(C4CCN(C(C)C)CC4)c3cc2OC)C1 [Compound 661] | < 0.1

The remaining lines, values ahead:

IC50 [µM] | Structure (SMILES)
< 0.1 | CCN1CC[C@@H](COc2cc3nc(C)cc(C4CCN(C)CC4)c3cc2OC)C1 [Compound 662]
< 0.1 | CCN1CC[C@@H](COc2cc3nc(C)cc(C4CCN(C(C)C)CC4)c3cc2OC)C1 [Compound 663]
1 to 10 | CCN1CC(COc2cc3nc(C)nc(C4CCN(C)CC4)c3cc2OC)C1 [Compound 664]
1 to 10 | CCN1CC(COc2cc3nc(C)nc(C4CCN(C(C)C)CC4)c3cc2OC)C1 [Compound 665]
< 0.1 | CCN1CC[C@@H](COc2cc(Nc3nc(C)cc(NCC4CCOCC4)n3)ccc2OC)C1 [Compound 667]
0.1 to 1 | COc1cc2c(C3CCOCC3)cc(C)nc2cc1OCCCN1CCCC1 [Compound 668]
0.1 to 1 | COc1cc2c(C3CCN(C(C)C)CC3)cc(C)nc2nc1OCCCN1CCCC1 [Compound 670]
< 0.1 | CCc1cc(NC)nc(Nc2ccc(OC)c(OC[C@@H]3CCN(CC)C3)c2)n1 [Compound 671]
< 0.1 | CCN1CC[C@@H](COc2cc(Nc3nc(NC)cc(C(C)C)n3)ccc2OC)C1 [Compound 672]
0.1 to 1 | CCN1CC[C@@H](COc2cc3nc(C)nc(C4CCN(C)CC4)c3cc2OC)C1 [Compound 673]
1 to 10 | CCN1CC[C@@H](COc2cc3nc(C)nc(C4CCN(C(C)C)CC4)c3cc2OC)C1 [Compound 674]
> 10 | CNc1cc(C)nc(Nc2cnc(OC)c(O)c2)n1 [Compound 676]
< 0.1 | COc1cc2c(C3CCN(C)CC3)cc(-c3cn[nH]c3)nc2cc1OCCCN1CCCC1 [Compound 677]
0.1 to 1 | COc1cc2c(C3CCN(C)CC3)cc(-c3cc[nH]n3)nc2cc1OCCCN1CCCC1 [Compound 678]
1 to 10 | COc1cc2c(C3CCOCC3)cc(-c3cn[nH]c3)nc2cc1OCCCN1CCCC1 [Compound 679]
1 to 10 | CNCCN(C)Cc1cc(Nc2nc(C)cc(NC)n2)ccc1OC [Compound 680]

IC50 [µM] | Structure (SMILES)
0.1 to 1 | COc1cc2c(C3CCN(C)CC3)nc(-c3cn[nH]c3)nc2cc1OCCCN1CCCC1 [Compound 681]
< 0.1 | COCCN1CCC(c2cc(C)nc3cc(OCCCN4CCCC4)c(OC)cc23)CC1 [Compound 682]
> 10 | COc1cnc(Nc2ccc3[nH]nnc3c2)cc1OCCCN1CCCC1 [Compound 686]
1 to 10 | CCN1CC([C@@H](C)Oc2cc(Nc3nc(C)cc(NC)n3)ccc2OC)C1 [Compound 687]
< 0.1 | CNc1cc(C)c2cc(OC)c(OCCCN3CCCC3)cc2n1 [Compound 736]
1 to 10 | CNc1nc(C)c2cc(OC)c(OCCCN3CCCC3)cc2n1 [Compound 737]
0.1 to 1 | COc1cc2c(C)cc(N3CCNCC3)nc2cc1OCCCN1CCCC1 [Compound 738]
> 10 | COc1cc2c(C)nc(N3CCNCC3)nc2cc1OCCCN1CCCC1 [Compound 739]
< 0.1 | CNc1nc(C2CCN(CCOC)CC2)c2cc(OC)c(OCCCN3CCCC3)cc2n1 [Compound 740]
0.1 to 1 | COc1cc2c(C3CCN(C)CC3)cc(C)nc2cc1OCCCN1CC[C@H](F)C1 [Compound 741]
< 0.1 | COc1cc2c(C3CCN(C)CC3)cc(C)nc2cc1OCCCN1CC[C@@H](F)C1 [Compound 742]
1 to 10 | COc1cc2c(C3CCCN(C)C3)nc(C)nc2cc1OCCCN1CCCC1 (centres unmarked) [Compound 743]
0.1 to 1 | COc1cc2c(C3CCN(C)C3)nc(C)nc2cc1OCCCN1CCCC1 (centres unmarked) [Compound 745]
0.1 to 1 | CNc1nc(C2CCCN(C)C2)c2cc(OC)c(OCCCN3CCCC3)cc2n1 (centres unmarked) [Compound 746]
0.1 to 1 | CNc1ccnc(Nc2ccc(OC)c(CNC[C@@H]3CCCN3)c2)n1 [Compound 1019]
1 to 10 | CNc1ccnc(Nc2ccc(OC)c(CNC[C@H]3CCCN3)c2)n1 [Compound 1020]

Reference: patent US20210198277A1, “AMINE-SUBSTITUTED ARYL OR HETEROARYL COMPOUNDS” (Epizyme, Inc., priority 2016, published 2021)
